ChEMBL document CHEMBL2069289, “Phosphodiesterase inhibitors. Part 4: design, synthesis and structure-activity relationships of dual PDE3/4-inhibitory fused bicyclic heteroaromatic-4,4-dimethylpyrazolones” (Bioorg Med Chem Lett, 2012)
Activity calls are given as the source filed them. The rule behind the calls is not given here.

Assays:
[1] = molecular target: cGMP-inhibited 3',5'-cyclic phosphodiesterase 3A (Homo sapiens, UniProt Q14432); experiment: Inhibition of core catalytic domain of PDE3A
Sequence of cGMP-inhibited 3',5'-cyclic phosphodiesterase 3A (Q14432 whole entry, the tested form may be a part): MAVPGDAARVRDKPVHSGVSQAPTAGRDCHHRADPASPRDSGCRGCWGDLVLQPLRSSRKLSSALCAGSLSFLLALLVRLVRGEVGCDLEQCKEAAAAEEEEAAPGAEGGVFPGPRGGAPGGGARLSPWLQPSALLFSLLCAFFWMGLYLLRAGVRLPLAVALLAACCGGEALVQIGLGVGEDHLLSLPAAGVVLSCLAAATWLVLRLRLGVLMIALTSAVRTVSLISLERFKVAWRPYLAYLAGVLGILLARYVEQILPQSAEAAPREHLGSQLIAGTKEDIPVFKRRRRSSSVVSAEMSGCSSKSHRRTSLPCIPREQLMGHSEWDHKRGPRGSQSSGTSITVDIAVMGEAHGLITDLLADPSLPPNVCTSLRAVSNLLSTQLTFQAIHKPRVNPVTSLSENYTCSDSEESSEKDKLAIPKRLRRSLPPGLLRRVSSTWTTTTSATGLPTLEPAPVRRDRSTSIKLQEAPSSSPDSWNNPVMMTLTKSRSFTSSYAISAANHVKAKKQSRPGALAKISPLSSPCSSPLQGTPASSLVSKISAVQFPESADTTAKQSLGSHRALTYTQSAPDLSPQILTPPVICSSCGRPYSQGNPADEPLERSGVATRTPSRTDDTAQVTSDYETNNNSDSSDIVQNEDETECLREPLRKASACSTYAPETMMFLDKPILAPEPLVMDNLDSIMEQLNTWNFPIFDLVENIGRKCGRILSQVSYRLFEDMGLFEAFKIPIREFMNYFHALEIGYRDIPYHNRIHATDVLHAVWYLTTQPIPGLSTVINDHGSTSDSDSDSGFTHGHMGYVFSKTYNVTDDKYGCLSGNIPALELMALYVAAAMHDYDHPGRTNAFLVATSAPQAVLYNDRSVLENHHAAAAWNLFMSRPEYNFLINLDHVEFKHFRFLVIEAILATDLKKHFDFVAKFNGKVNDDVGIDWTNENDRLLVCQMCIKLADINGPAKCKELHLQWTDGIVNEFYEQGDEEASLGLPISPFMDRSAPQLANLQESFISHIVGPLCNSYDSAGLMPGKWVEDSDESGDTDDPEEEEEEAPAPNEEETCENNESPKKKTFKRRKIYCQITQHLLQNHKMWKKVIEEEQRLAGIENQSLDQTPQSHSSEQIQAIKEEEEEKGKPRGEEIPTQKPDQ

[2] = molecular target: 3',5'-cyclic-AMP phosphodiesterase 4B (Homo sapiens, UniProt Q07343); experiment: Inhibition of core catalytic domain of PDE4B
Sequence of 3',5'-cyclic-AMP phosphodiesterase 4B (Q07343 whole entry, the tested form may be a part): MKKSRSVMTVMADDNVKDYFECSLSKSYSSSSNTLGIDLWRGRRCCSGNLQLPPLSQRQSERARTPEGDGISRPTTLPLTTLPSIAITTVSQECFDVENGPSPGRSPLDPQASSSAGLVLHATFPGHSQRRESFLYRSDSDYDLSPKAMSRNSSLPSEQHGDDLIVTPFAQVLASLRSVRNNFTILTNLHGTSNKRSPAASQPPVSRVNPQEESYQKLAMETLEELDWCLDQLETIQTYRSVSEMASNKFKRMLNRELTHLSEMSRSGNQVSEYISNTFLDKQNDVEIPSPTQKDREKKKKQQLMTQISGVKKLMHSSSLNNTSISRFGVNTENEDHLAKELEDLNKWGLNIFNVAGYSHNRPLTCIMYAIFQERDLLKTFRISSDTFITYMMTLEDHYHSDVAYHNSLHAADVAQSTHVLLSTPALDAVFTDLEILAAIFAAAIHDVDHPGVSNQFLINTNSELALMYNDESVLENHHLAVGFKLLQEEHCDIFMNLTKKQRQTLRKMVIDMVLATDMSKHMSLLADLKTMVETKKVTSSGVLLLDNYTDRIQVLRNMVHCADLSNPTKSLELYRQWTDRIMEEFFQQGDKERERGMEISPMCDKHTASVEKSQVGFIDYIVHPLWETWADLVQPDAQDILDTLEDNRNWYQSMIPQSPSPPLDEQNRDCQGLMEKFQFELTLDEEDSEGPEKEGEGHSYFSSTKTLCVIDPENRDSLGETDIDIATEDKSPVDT

[3] = system: Cavia porcellus; experiment: Bronchodilatory activity in guinea pig assessed as reduction of histamine-induced bronchoconstriction at 0.3 mg/kg, iv relative to control; type: functional; set-up: scale not given: the % may be the effect or the level left
[4] = system: Cavia porcellus; experiment: Bronchodilatory activity in guinea pig assessed as reduction of histamine-induced bronchoconstriction at 0.1 mg/kg, po relative to control; type: functional
[5] = organism: Homo sapiens; experiment: Selectivity ratio of IC50 for core catalytic domain of PDE4B to IC50 for core catalytic domain of PDE3A

Row | SMILES | IC50 [1] [nM] | IC50 [2] [nM] | Activity [3] [%] | Activity [4] | Ratio IC50 [5]
1 | CCc1cc2c(C3=NNC(=O)CC3C)ccc(OC)n2n1 (racemic) | 11300 | 470 |  |  | 
2 | CCc1cc2c(C3=NNC(=O)C3(C)C)ccc(CO)n2n1 | 1590 | 35 |  |  | 
3 | COc1ccc(C2=NNC(=O)C2(C)C)c2cc(C(F)F)nn12 | 3280 | 50 |  |  | 
4 | COc1ccc(C2=NNC(=O)C2(C)C)c2ccnn12 | 10800 | 2930 |  |  | 
5 | COc1ccc(C2=NNC(=O)C2(C)C)c2[nH]c(C(F)(F)F)nc12 | 14100 | 200 |  |  | 
6 | COc1ccc(C2=NNC(=O)C2(C)C)c2sc(C(F)(F)F)nc12 | 540 | 63 | 96 | inactive | 
7 | CCc1cc2c(C3=NNC(=O)C3(C)C)ccc(C(C)O)n2n1 (racemic) | 1630 | 3.4 |  |  | 
8 | COc1ccc(C2=NNC(=O)C2(C)C)c2cc(C(F)(F)F)oc12 | 1100 | 360 |  |  | 
9 | CCc1cc2c(C3=NNC(=O)C3(C)C)ccc(CC)n2n1 | 2000 | 17 |  |  | 
10 | CCc1cc2c(C3=NNC(=O)C3(C)C)ccc(OC)n2n1 | 9210 | 410 |  |  | 
11 | CCc1cc2c(C3=NNC(=O)C3(C)C)ccc(C)n2n1 | 2370 | 160 |  |  | 
12 | COc1ccc(C2=NNC(=O)C2(C)C)c2cc(C(F)(F)F)sc12 | 5360 | 690 |  |  | 
13 | COc1ccc(C2=NNC(=O)C2(C)C)n2cc(C(F)(F)F)nc12 | 140 | 150 | 100 | >70% | 
14 | COc1ccc(C2=NNC(=O)CC2C)c2cc(C(F)(F)F)nn12 (single isomer, unassigned; (-)) | 360 | 42 |  |  | 
15 | CCc1ccc2c(C3=NNC(=O)C3(C)C)ccc(OC)c2n1 | 10100 | 2580 |  |  | 
16 | CCc1cc2c(C3=NNC(=O)C3(C)C)ccc(NC)n2n1 | 75600 | 15 |  |  | 5000
17 | COc1ccc(C2=NNC(=O)C2(C)C)c2ccc(C(F)(F)F)nc12 | 6650 | 1070 |  |  | 
18 | COc1ccc(C2=NNC(=O)C2(C)C)c2cc(C3CC3)nn12 | 6170 | 150 |  |  | 
19 | CCc1cc2c(C3=NNC(=O)C3(C)C)ccc(SC)n2n1 | 9010 | 79 |  |  | 
20 | CCc1cc2c(C3=NNC(=O)C3(C)C)ccc(C(C)=O)n2n1 | 2500 | 7.5 |  |  | 
21 | COc1ccc(C2=NNC(=O)C2(C)C)c2cc(C(F)(F)F)nn12 | 4130 | 110 |  |  | 
